In patent publication US6632817B2, “Fluoromethoximino compounds” (priority 1997, dated 2003):

Key:
[1] = logP determination by HPLC (EEC Directive 79/831 Annex V. A8); type: physicochemical; details: HPLC gradient method, acetonitrile/0.1% aqueous phosphoric acid
Experimental: The logP values are determined in accordance with EEC Directive 79/831 Annex V. A8 by HPLC (gradient method, acetonitrile/0.1% aqueous phosphoric acid).

[2] = system: Plasmopara viticola; assay: Plasmopara test (grapevine)/protective; type: in vivo; details: Plasmopara viticola, 144 h, protective, application rate 100 g/ha, evaluation 6 days after inoculation, read-out: Efficacy in %
Experimental: Plasmopara Test (Grapevine)/Protective
(§1) Solvent: 47 parts by weight of acetone
(§2) Emulsifier: 3 parts by weight of alkylaryl polyglycol ether
(§3) To produce a suitable preparation of active compound, 1 part by weight of active compound is mixed with the stated amounts of solvent and emulsifier, and the concentrate is diluted with water to the desired concentration.
To test for protective activity, young plants are sprayed with the preparation of active compound at the stated application rate. After the spray coating has dried on, the plants are inoculated with an aqueous spore suspension of Plasmopara viticola and then remain in an incubation cabin at approximately 20° C. and 100% relative atmospheric humidity for 1 day. The plants are subsequently placed in a greenhouse at approximately 21° C. and approximately 90% relative atmospheric humidity for 5 days. The plants are then moistened and placed in an incubation cabin for 1 day.
Evaluation is carried out 6 days after the inoculation. 0% means an efficacy which corresponds to that of the control, whereas an efficacy of 100% means that no infection is observed.

[3] = system: Venturia inaequalis; assay: Venturia test (apple)/protective; type: in vivo; details: Venturia inaequalis, 288 h, protective, application rate 10 g/ha, evaluation 12 days after inoculation, read-out: Efficacy in %
Experimental: Venturia Test (Apple)/Protective
as §1, §2, §3
To test for protective activity, young plants are sprayed with the preparation of active compound at the stated application rate. After the spray coating has dried on, the plants are inoculated with an aqueous conidia suspension of the causative organism of apple scab Venturia inaequalis and then remain in an incubation cabin at approximately 20° C. and 100% relative atmospheric humidity for 1 day.
The plants are then placed in a greenhouse at approximately 21° C. and a relative atmospheric humidity of approximately 90%.
Evaluation is carried out 12 days after the inoculation. 0% means an efficacy which corresponds to that of the control, whereas an efficacy of 100% means that no infection is observed.

[4] = system: Puccinia recondita; assay: Puccinia test (wheat)/protective; type: in vivo; details: Puccinia recondita, 240 h, protective, application rate 250 g/ha, evaluation 10 days after inoculation, read-out: Efficacy in %
Experimental: Puccinia Test (Wheat)/Protective
(§4) Solvent: 25 parts by weight of N,N-dimethylacetamide
(§5) Emulsifier: 0.6 part by weight of alkylaryl polyglycol ether
as §3
To test for protective activity, young plants are sprayed with the preparation of active compound at the stated application rate. After the spray coating has dried on, the plants are sprayed with a conidia suspension of Puccinia recondita. The plants remain in an incubation cabin at 20° C. and 100% relative atmospheric humidity for 48 hours.
The plants are then placed in a greenhouse at a temperature of approximately 20° C. and a relative atmospheric humidity of 80% to promote the development of rust pustules.
(§6) Evaluation is carried out 10 days after the inoculation. 0% means an efficacy which corresponds to that of the control, whereas an efficacy of 100% means that no infection is observed.

[5] = system: Puccinia recondite; assay: Puccinia test (wheat)/curative; type: in vivo; details: curative, application rate 250 g/ha, evaluation 10 days after inoculation
Experimental: Puccinia Test (Wheat)/Curative
as §4, §5, §3
To test for curative activity, young plants are sprayed with a conidia suspension of Puccinia recondite. The plants remain in an incubation cabin at 20° C. and 100% relative atmospheric humidity for 48 hours. The plants are subsequently sprayed with the preparation of active compound at the stated application rate.
The plants are placed in a greenhouse at a temperature of approximately 20° C. and a relative atmospheric humidity of approximately 80% to promote the development of rust pustules.
as §6

Structure (SMILES) | chromatographic logP [1] | pest or weed control at 100 g/ha [2] | pest or weed control at 10 g/ha [3] | pest or weed control at 250 g/ha [4] | Efficacy in % [5] | melting point
CNC(=O)/C(=N\OCF)c1ccccc1Oc1nc(-c2ccc(OC(F)(F)F)cc2)ns1 [Example 22] | 3.8 | ≥ 98% | ≥ 99% | ≥ 80% | 100% | –
CNC(=O)C(=NOCF)c1ccccc1Oc1ncnc(Oc2ccccc2Cl)c1F [Example 2, 2-{2-[6-(2-chlorophenoxy)-5-fluoropyrimidin-4-yloxy]-phenyl}-2-fluoromethoxyimino-N-methylacetamide] | – | ≥ 98% | ≥ 99% | ≥ 80% | 100% | 128 to 129 °C
CNC(=O)/C(=N\OCF)c1ccccc1Oc1ncnc(Oc2cccc(Cl)c2C)c1F [drawing 99] | – | – | – | – | 100% | –
CNC(=O)/C(=N\OCF)c1ccccc1Oc1nc(-c2ccc(OC(F)(F)F)cc2)ns1 [drawing 104] | – | – | – | – | 100% | –
CNC(=O)/C(=N\OCF)c1ccccc1Oc1nc(-c2ccc(OC(F)F)cc2)ns1 [Example 26] | 3.2 | ≥ 98% | ≥ 99% | ≥ 80% | – | –
CNC(=O)/C(=N\OCF)c1ccccc1Oc1ncnc(Oc2cccc(C)c2C)c1F [Example 9] | 3.3 | ≥ 98% | ≥ 99% | ≥ 80% | – | –
CNC(=O)/C(=N\OCF)c1ccccc1Oc1ncnc(Oc2ccccc2C#N)c1F [drawing 102] | – | – | – | – | 100% | –
CNC(=O)/C(=N\OCF)c1ccccc1Oc1ncnc(Oc2ccccc2OC(F)F)c1F [Example 6] | 2.9 | ≥ 98% | ≥ 99% | ≥ 80% | 100% | –
COC(=O)C(=NOCF)c1ccccc1Oc1ncnc(Oc2ccccc2Cl)c1F [Example 1, methyl {2-[6-(2-chlorophenoxy)-5-fluoropyrimidin-4-yloxy]-phenyl}-fluoromethoxyimino-acetate] | – | ≥ 98% | ≥ 99% | ≥ 80% | – | 153 to 155 °C
CNC(=O)/C(=N\OCF)c1ccccc1Oc1ncnc(Oc2ccccc2C#N)c1F [Example 10] | 2.8 | ≥ 98% | – | ≥ 80% | 100% | –
CNC(=O)/C(=N\OCF)c1ccccc1Oc1nc(-c2cccc(C(F)(F)F)c2)ns1 [drawing 103] | – | – | – | – | 100% | –
CNC(=O)/C(=N\OCF)c1ccccc1Oc1ncnc(Oc2ccccc2Cl)c1F [drawing 105] | – | – | – | – | 100% | –
CNC(=O)C(NOCF)c1ccccc1Oc1ncnc(Oc2ccccc2[N+](=O)[O-])c1F (stereo not drawn) [drawing 101] | – | – | – | – | 100% | –
CNC(=O)/C(=N\OCF)c1ccccc1Oc1nc(-c2cccc(C(F)(F)F)c2)ns1 [Example 28] | 3.6 | ≥ 98% | ≥ 99% | ≥ 80% | 100% | –
CNC(=O)/C(=N\OCF)c1ccccc1Oc1ncnc(Oc2ccccc2OC(F)F)c1F [drawing 100] | – | – | – | – | 100% | –
CNC(=O)/C(=N\OCF)c1ccccc1Oc1ncnc(Oc2cccc(Cl)c2C)c1F [Example 4] | 3.5 | ≥ 98% | ≥ 99% | – | 100% | –
CNC(=O)C(=NOCF)c1ccccc1Oc1ncnc(Oc2ccccc2Cl)c1F [drawing 98] | – | – | – | – | 100% | –
